{
  "source": "paper PMC4203769",
  "about": "“The “Genomic Storm” Induced by Bacterial Endotoxin Is Calmed by a Nuclear Transport Modifier That Attenuates Localized and Systemic Inflammation” (PLoS ONE, 2014)",
  "key": {"[1]": {"test": "Solubility of peptides in water", "assay_type": "physicochemical", "from_the_text": "A fragment-linked peptide strategy to analyze signal-dependent nuclear transport is based on fusing a motif from the nuclear localization sequence (NLS) region of the NF-κB1/p50 subunit with the signal sequence hydrophobic region (SSHR) of human fibroblast growth factor 4 [7], [19]. NLS- and SSHR-containing NTMs (SN50, cSN50 and cSN50.1; see Table 1 for their composition and solubility) were designed to function at the nuclear transport level by binding to importins α during stimulus-initiated signaling and thereby modulate nuclear import of NLS-bearing SRTFs. The SSHR motif allows peptides to cross the plasma membrane of cells in culture or in experimental animals through an ATP- and endosome-independent mechanism. […] The functional utility of NTMs has been reported in numerous preclinical models of inflammation caused by microbial and autoimmune insults, [21]–[26]."}, "[2]": {"tested_on": "primary macrophages challenged with LPS", "test": "Cell viability of LPS-challenged primary macrophages", "assay_type": "cell-based, mouse (C57BL/6)", "conditions": "LPS-challenged BMDMs, 30 µM peptide; data not shown; listed as NTM"}, "[3]": {"tested_on": "mouse blood cells and organs", "conditions": "after i.p. injection; receptor- and endocytosis-independent mechanism; cited from earlier work", "experimental": "NTM is rapidly delivered (within 30–60 min after i.p. injection) through a receptor-and endocytosis-independent mechanism to mouse blood cells and organs where it reaches sufficient intracellular concentration to engender localized (lung) and systemic (endotoxic shock) anti-inflammatory effects. Thus, the microvascular compartment of multiple organs that are vulnerable to LPS toxicity (e.g. lungs, liver, and kidneys) can be protected, [22]. Unlike anti-inflammatory glucocorticosteroids which produced discordant results in sepsis clinical trials, [33] and have potential ..."}},
  "note": "Several values for one entry are separate records, joined by “and”; a condition that tells them apart may be missing. Equal values may be shown once. Entries after “also recorded” stand apart in the source; their conditions may differ. Positions of bridges follow the written chain, without caps; N, C: chain ends. Residues, ends and D or L forms follow the SMILES beside them.",
  "data": [
    {"smiles": "CSCC[C@@H]1NC(=O)[C@H](CC(C)C)NC(=O)[C@H](CCCCN)NC(=O)[C@H](CCC(N)=O)NC(=O)[C@H](CCCNC(=N)N)NC(=O)[C@H](CCCCN)NC(=O)[C@H](CCCNC(=N)N)NC(=O)[C@H](CCC(N)=O)NC(=O)[C@H](C(C)C)NC(=O)[C@H](Cc2ccc(O)cc2)NC(=O)[C@@H](NC(=O)[C@@H]2CCCN2C(=O)[C@H](C)NC(=O)[C@H](CC(C)C)NC(=O)[C@H](CC(C)C)NC(=O)[C@H](C)NC(=O)[C@H](CC(C)C)NC(=O)[C@H](CC(C)C)NC(=O)[C@@H](NC(=O)[C@H](C)NC(=O)[C@@H]2CCCN2C(=O)[C@H](CC(C)C)NC(=O)[C@H](CC(C)C)NC(=O)[C@H](C)NC(=O)[C@@H](NC(=O)[C@H](C)NC(=O)[C@H](C)N)C(C)C)C(C)C)CSSC[C@@H](C(=O)O)NC(=O)[C@@H]2CCCN2C1=O", "note": "[cSN50, reference compound] (H-AAVALLPAVLLALLAPCYVQRKRQKLMPC-OH; disulfide 17-29)", "values": [
      {"measurement": "Solubility in Water", "setting": "[1]", "value": "38 mg/mL and 12.1 mM"}
    ]},
    {"smiles": "CSCC[C@@H]1NC(=O)[C@H](CC(C)C)NC(=O)[C@H](CCCCN)NC(=O)[C@H](CCC(N)=O)NC(=O)[C@H](CCCNC(=N)N)NC(=O)[C@H](CCCCN)NC(=O)[C@H](CCCNC(=N)N)NC(=O)[C@H](CCC(N)=O)NC(=O)[C@H](C(C)C)NC(=O)[C@@H](NC(=O)[C@@H]2CCCN2C(=O)[C@H](C)NC(=O)[C@H](CC(C)C)NC(=O)[C@H](CC(C)C)NC(=O)[C@H](C)NC(=O)[C@H](CC(C)C)NC(=O)[C@H](CC(C)C)NC(=O)[C@@H](NC(=O)[C@H](C)NC(=O)[C@@H]2CCCN2C(=O)[C@H](CC(C)C)NC(=O)[C@H](CC(C)C)NC(=O)[C@H](C)NC(=O)[C@@H](NC(=O)[C@H](C)NC(=O)[C@H](C)N)C(C)C)C(C)C)CSSC[C@@H](C(=O)O)NC(=O)[C@@H]2CCCN2C1=O", "note": "[cSN50.1] (H-AAVALLPAVLLALLAPCVQRKRQKLMPC-OH; disulfide 17-28)", "values": [
      {"measurement": "Solubility in Water", "setting": "[1]", "value": "100 mg/mL and 33.5 mM"},
      {"measurement": "effect on cell viability / cytotoxicity", "setting": "[2]", "value": "without altering expression of housekeeping genes or being cytotoxic; also recorded: not associated with changes in cell viability"},
      {"measurement": "time to delivery to mouse blood cells and organs", "setting": "[3]", "value": "30 to 60", "unit": "min"}
    ]}
  ]
}
